Source: PMC12495412, “Coumarin/nitrogen-bearing heterocyclic hybrid-loaded electrospun PMMA/PVP nanofibrous scaffolds for accelerating topical wound healing rates: synthesis and in vitro bio-evaluation” (RSC Advances, 2025)
In brackets after ≈: the same amount, converted by molar mass.

Columns and labels:
Wi-38 cells = assay: MTT cytotoxicity assay, normal cells; type: cell-based; conditions: 48 h; for IC50 Wi-38: normal human lung fibroblast cells
Excerpt: (§1) MTT assay: the normal cell line (Wi-38), colon cancer (Caco-2), lung cancer (A549), and breast cancer (MDA) cell lines were sourced from ATCC, USA. All different cell lines were cultivated and preserved in DMEM medium (SERANA, Germany), accompanied by 10% FBS (Gibco, USA) and 1% Pen/Strep solution (Lonza, USA). The newly prepared derivatives at various doses were considered for their anticancer activity and their safety on normal cells, applying MTT (3-[4, 5-dimethylthiazol]-2, 5-diphenyltetrazolium bromide) methods.[22] At first, all normal and cancer cell lines (1.0 ×10^4) were inoculated in 4 antiseptic 96-well tissue culture microplates and incubated for 24 h in a CO2 incubator. After cell attachments, the prepared derivatives were added to both normal Wi-38 cells at diverse concentrations of (6.25–200 μg mL^−1, 2-fold) and cancer cells at different concentrations of (3.125–100 μg mL^−1, 2-fold) in triplicate and incubated for another 48 h at 37 °C in a CO2 incubator with an adjusted concentration of 5%. After that, the treated cells were cleaned three times with PBS to remove debris and dead cells. Next, 200 μL of 0.5 mg mL^−1 MTT dye solution in PBS was mixed in each well, and the cells were further kept for 3 h at 37 °C in a 5% CO2 incubator. After that, MTT was removed and 200 μL of DMSO was added to each well. The optical density (OD) was recorded at 570 nm via a microplate reader (B.M.G. LabTech, Germany). Basic cells (untreated) were utilized as negative control cells, and 5-fluorouracil (5-FU) was included as a standard chemotherapy drug. The qualified cell viability (%) was evaluated as in equation (eqn (1)):1 Relative cell viability (%) = […] A1 is the OD of the examined derivative, A0 is the OD of the standard, and AU is the OD of the untreated cells.
(§2) Anticancer activity assay: the anticancer effect of each derivative was assessed by evaluating the half-maximal inhibitory concentration (IC50) value via the GraphPad Prism 7.0 software. However, SI (selective index) values of each derivative were estimated by splitting the IC50 value of healthy cells by the IC50 value of malignant cells, as previously reported.[23] The effects of the created derivatives on the morphology of MDA cells were evaluated at IC50 doses and captured by phase-contrast microscopy (Olympus, Germany) in comparison to untreated control cells.

Caco-2 cells = assay: MTT anticancer assay; type: cell-based; conditions: for SI Caco-2: IC50 Wi-38 / IC50 Caco-2
Excerpt: as §1, §2

A549 cells [1] = assay: MTT anticancer assay; type: cell-based, human; conditions: 48 h; for IC50 A549: lung carcinoma cells
Excerpt: as §1, §2

MDA cells = assay: MTT anticancer assay; type: cell-based, human; conditions: 48 h; for IC50 MDA: breast carcinoma cells
Excerpt: as §1, §2

A549 cells [2] = assay: Wound healing scratch (anti-migration) assay; type: cell-based, human; conditions: IC50 doses, 48 h
Description: To assess the anti-migration inhibition capability of newly synthesized derivatives, a wound healing technique was employed. A549 cells were planted in 12-well plates and kept alive at 37 °C until they achieved 80–90% fluency. The cell monolayers were smashed with a sterile tip and exposed to the prepared derivatives at IC50 doses. At 0 and 48 h of treatment, the wound closure area was captured and calculated by imaging analysis with the Cell-Sens software (Olympus, Japan).

S. aureus = assay: Agar-well diffusion of synthesized compounds; type: cell-based, Staphylococcus aureus ATCC 25923; conditions: 100 μL of 10 mg mL^−1 per well, 24 h, 37 °C
Excerpt: The antimicrobial activity of the prepared compounds was estimated through an agar-well diffusion method as adapted from the modified Kirby–Bauer protocol.[24] In this test, microbial pathogens were applied, including Staphylococcus aureus ATCC 25923 (S. aureus), Streptococcus mutans ATCC 25175 (S. mutans), Bacillus cereus ATCC 19637 (B. cereus), Bacillus aureus ATCC 25923 (B. aureus), Bacillus epidermidis ATCC 14990 (B. epidermidis), and Bacillus subtilis ATCC 11774 (B. subtilis) as Gram-positive bacteria, and Pseudomonas aeruginosa ATCC 27853 (P. aeruginosa), Klebsiella pneumonia ATCC 13883 (K. pneumonia), and Salmonella typhimurium ATCC 14028 (S. typhimurium), Salmonella pneumoniae ATCC 10031(S. pneumoniae), Escherichia coli ATCC 10536 (E. coli), and Salmonella paratyphi ATCC 9150 (S. paratyphi) as Gram-negative bacteria. Additionally, Candida albicans (ATCC 10231), Candida krusei ATCC 6258 (C. krusei), Candida glabrata ATCC 66032 (C. glabrata), andCandida parapsilosis ATCC 22019 (C. parapsilosis) were applied as models of unicellular fungi. The pre-inoculation cultures of the pathogens were prepared on Muller–Hinton broth and cultivated for 24 h at 37 °C. The agar-well test was prepared on Muller–Hinton agar with 100 μL of each pathogen pre-culture (0.5 McFarland conc.) and uniformly distributed on the plate surface. […]

S. mutans = assay: Agar-well diffusion of synthesized compounds; type: cell-based, Streptococcus mutans ATCC 25175; conditions: 100 μL of 10 mg mL^−1 per well, 24 h, 37 °C
Excerpt: The antimicrobial activity of the prepared compounds was estimated through an agar-well diffusion method as adapted from the modified Kirby–Bauer protocol.[24] In this test, microbial pathogens were applied, including Staphylococcus aureus ATCC 25923 (S. aureus), Streptococcus mutans ATCC 25175 (S. mutans), Bacillus cereus ATCC 19637 (B. cereus), Bacillus aureus ATCC 25923 (B. aureus), Bacillus epidermidis ATCC 14990 (B. epidermidis), and Bacillus subtilis ATCC 11774 (B. subtilis) as Gram-positive bacteria, and Pseudomonas aeruginosa ATCC 27853 (P. aeruginosa), Klebsiella pneumonia ATCC 13883 (K. pneumonia), and Salmonella typhimurium ATCC 14028 (S. typhimurium), Salmonella pneumoniae ATCC 10031(S. pneumoniae), Escherichia coli ATCC 10536 (E. coli), and Salmonella paratyphi ATCC 9150 (S. paratyphi) as Gram-negative bacteria. Additionally, Candida albicans (ATCC 10231), Candida krusei ATCC 6258 (C. krusei), Candida glabrata ATCC 66032 (C. glabrata), andCandida parapsilosis ATCC 22019 (C. parapsilosis) were applied as models of unicellular fungi. The pre-inoculation cultures of the pathogens were prepared on Muller–Hinton broth and cultivated for 24 h at 37 °C. The agar-well test was prepared on Muller–Hinton agar with 100 μL of each pathogen pre-culture (0.5 McFarland conc.) and uniformly distributed on the plate surface. Under aseptic conditions, six wells were created on the agar surface using a sterile corkborer (9 mm). To each well, 100 μL of the prepared compound (10 mg mL^−1) was separately inserted into each plate. All plates were incubated for 24 h at 37 °C; the established inhibition zones (Halo-zones) surrounding the wells indicated positive antimicrobial activity and were stated as the radius of the inhibition zone (mm).

[3] = colon carcinoma cells, MTT, 48 h

Row | IC50 (Caco-2 cells; Homo sapiens, Caco-2, colon carcinoma cells, MTT, 48 h) [µg/mL] | SI Caco-2 (Caco-2 cells) | IC50 (A549 cells [1]; Homo sapiens, A549, lung carcinoma cells) [µg/mL] | IC50 (MDA cells; Homo sapiens, Breast carcinoma cell) [µg/mL] | Compound | IC50 (Wi-38 cells; WI-38, normal human lung fibroblast cells) [µg/mL] | IC50 Wi-38 (Wi-38 cells) [µg/mL] | IC50 Caco-2 (Caco-2 cells; [3]) [µg/mL] | IC50 A549 (A549 cells [1]) [µg/mL] | IC50 MDA (MDA cells) [µg/mL] | Migration inhibition (A549 cells [2]) [%] | Inhibition zone (S. aureus) | Inhibition zone (S. mutans)
1 | 6.13 ± 0.28 (≈ 47.1 µM) | 0.85 ± 0.03 | 5.74 ± 0.24 (≈ 44.1 µM) | 5.89 ± 0.19 (≈ 45.3 µM) | O=c1[nH]cc(F)c(=O)[nH]1 [Compound 5-FU, 5-fluorouracil, reference compound] | 5.23 ± 0.18 (≈ 40.2 µM) | – | – | – | – | – | – | –
2 | – | 4.59 ± 0.37 | – | – | Nc1ccc(Nc2ccnc3cc(Cl)ccc23)cc1 [Compound A1] | – | 175.3 ± 14.08 (≈ 650 µM) | 38.23 ± 1.64 (≈ 142 µM) | 32.05 ± 2.18 (≈ 119 µM) | 14.91 ± 0.96 (≈ 55.3 µM) | – | – | –

Row | Compound | IC50 (Caco-2 cells; Homo sapiens, Caco-2, colon carcinoma cells, MTT, 48 h) [µg/mL] | SI Caco-2 (Caco-2 cells) | IC50 (A549 cells [1]; Homo sapiens, A549, lung carcinoma cells) [µg/mL] | IC50 (MDA cells; Homo sapiens, Breast carcinoma cell) [µg/mL] | IC50 (Wi-38 cells; WI-38, normal human lung fibroblast cells) [µg/mL] | IC50 Wi-38 (Wi-38 cells) [µg/mL] | IC50 Caco-2 (Caco-2 cells; [3]) [µg/mL] | IC50 A549 (A549 cells [1]) [µg/mL] | IC50 MDA (MDA cells) [µg/mL] | Migration inhibition (A549 cells [2]) [%] | Inhibition zone (S. aureus) | Inhibition zone (S. mutans)
3 | Nc1ccc(Nc2c3ccccc3nc3ccccc23)cc1 [Compound B1] | – | 8.07 ± 0.59 | – | – | – | 195.0 ± 14.41 (≈ 683 µM) | 24.15 ± 1.76 (≈ 84.6 µM) | 16.93 ± 1.88 (≈ 59.3 µM) | 8.92 ± 0.67 (≈ 31.3 µM) | 74.63 | about 13 mm | about 13 mm
